The text below walks through data of PubChem BioAssay (NCI).

Molecules are shown by their SMILES. Several values for one entry are separate records, joined by “and”; a condition that tells them apart may be missing. Equal entries are not always repeated.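 Tested at 5 concentrations; 48 h exposure; 96-well plates; endpoints linearly interpolated, else capped at highest concentration. GI50 is the concentration that inhibits growth by half. TGI marks complete inhibition of growth.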 A value given as a limit tells only on which side of the number the result lay.

Test in all cases: NCI-60 cell line screen, 48 h
Test [1] deals with BT-549 breast.
The test system of test [2] is HCC-2998 colon.
For test [3], the system named is HOP-62 NSCLC.
For test [4], the system named is HOP-92 NSCLC.
For test [5], the system named is HT29 colon.
Test [6] concerns MCF7 breast.
Test [7] has as its system MDA-MB-435.
Test [8] concerns OVCAR-8 ovarian.
In test [9] the test system is SF-268 CNS.
Test [10] concerns UACC-62 melanoma.

`COc1ccc(-c2cc3c(c4cc(OC)ccc24)C(=O)OC3=O)cc1`: the TGI in [1], in test [2], in test [3], in test [4], in [5] and in test [6] was greater than 100 µM in each case. In addition, the TGI in test [7], in test [8], in [9] and in test [10] was greater than 100 µM in each case.
Take `O=C(c1ccccc1)c1ccccc1-c1ccccc1`: the GI50 in test [1] was 10.3 µM; in [2], 6.14 µM; in [3], 5.38 µM; in [4] it was 3.36 µM; in test [5], 0.986 µM; in test [6], 2.97 µM. For the same compound, the GI50 was 0.325 µM in test [7], 4.77 µM in [8], 6.55 µM in [9] and 4.43 µM in [10]. Further, the TGI in test [1] is greater than 100 µM; in [2], 34.5 µM; in test [3] it was greater than 100 µM; in test [4], 47.1 µM; in [5] it was 14.3 µM; in [6], greater than 100 µM. For the same compound, the TGI in test [7] is 7.87 µM; in test [8], 52.4 µM; in [9] it was greater than 100 µM; in [10], greater than 100 µM.
Turning to `C=C(C)[C@@H]1CC[C@]2(C)CC[C@]3(C)[C@H](CC[C@@H]4[C@@]5(C)CC[C@H](O)C(C)(C)[C@@H]5CC[C@]43C)[C@@H]12`, the TGI in [1] was 29.3 µM; in test [2], greater than 100 µM; in test [3], greater than 100 µM; in test [4] it was greater than 100 µM; in test [5], greater than 100 µM; in test [6] it was 55.2 µM. In addition, the TGI is 40.4 µM in [7], greater than 64.2 µM in [8], greater than 100 µM in [9] and greater than 100 µM in test [10].
Regarding `COc1cc(/C=C\c2cc(OC)c(OC)c(OC)c2)cc(NC(=O)/C=C/c2cc(OC)c(OC)c(OC)c2)c1OC`, the GI50 in test [1] was 2.92 µM; in [2], greater than 100 µM; in test [3], 7.21 µM; in test [4] it was 4.68 µM; in test [5] it was 3.87 µM; in test [6], 3.49 µM. In addition, the GI50 was 1.54 µM in test [7], 6.68 µM in test [8], greater than 100 µM in [9] and 2.19 µM in test [10]. The TGI in test [1], in test [2], in test [3], in [4], in test [5] and in [6] was greater than 100 µM throughout. Further, the TGI in [7] is 4.84 µM; in test [8] it was greater than 100 µM; in test [9], greater than 100 µM; in test [10], greater than 100 µM.
For the compound `C=C(CN1C(=O)CN(C)C1=O)c1ccc(C(=O)Nc2ccccc2N)cc1`, the GI50 is 61.8 µM in test [1]; 22 µM in [2]; 17.6 µM in [3]; 26.5 µM in [4]; 10.9 µM in [5]; 12.7 µM in test [6]. The GI50 is 11.3 µM in test [7], 6.78 µM in test [8], 11.5 µM in test [9] and 9.31 µM in test [10]. Moreover, the TGI is greater than 100 µM in [1]; 54.3 µM in test [2]; greater than 100 µM in test [3]; greater than 100 µM in test [4]; 41.5 µM in [5]; greater than 100 µM in test [6]. Moreover, the TGI in test [7] was 54.1 µM; in test [8] it was greater than 100 µM; in [9], greater than 100 µM; in test [10] it was 32.3 µM.
As for `CN(CCO)CC[C@H](CSc1ccccc1)Nc1ccc(S(=O)(=O)NC(=O)c2ccc(N3CCC([C@@H](O)c4ccccc4-c4ccc(Cl)cc4)CC3)cc2)cc1S(=O)(=O)C(F)(F)F`, the GI50 in test [1] was 2.69 µM; in [2], 0.286 µM; in test [3], 5.9 µM; in test [4], 0.0415 µM; in [5], 7.45 µM; in test [6], 2.97 µM. The GI50 was 2.31 µM in test [7], 11.5 µM in test [8], 3.92 µM in [9] and 1.8 µM in test [10]. Moreover, the TGI in [1] is 11 µM; in test [2], 1.69 µM; in test [3], 35.5 µM; in [4] it was 0.387 µM; in test [5] it was 60.6 µM; in test [6], 12.2 µM. In addition, the TGI in test [7] is 6.51 µM; in [8], greater than 100 µM; in test [9], greater than 46 µM; in test [10] it was 4.13 µM.
In the case of `C[C@@]1(C(=O)O)CCC[C@]2(C)C1CC[C@@]13CC(=O)[C@@](CO)(CC[C@]12O)C3` (stereo not given in full), the GI50 in [1] was greater than 100 µM; in [2], 50.7 µM; in [3], greater than 100 µM; in test [4], 11.7 µM; in test [5], greater than 100 µM; in [6], greater than 100 µM. For the same compound, the GI50 in test [7], in test [8], in test [9] and in [10] was greater than 100 µM each time. Moreover, the TGI in test [1] was greater than 100 µM; in test [2], greater than 100 µM; in test [3], greater than 100 µM; in test [4], 97.8 µM; in [5] it was greater than 100 µM; in test [6], greater than 100 µM. The TGI in test [7], in test [8], in [9] and in [10] was greater than 100 µM throughout.
Turning to `CCOC(=O)Nc1ccc2c(c1)/C(=N\NC(N)=S)c1ccccc1-2`, the GI50 is 4.24 µM in [1]; 4.77 µM in test [2]; 4.9 µM in [3]; 8.49 µM in test [4]; 3.23 µM in test [5]; 3.15 µM in [6]. The GI50 in [7] was 3.58 µM; in test [8], 3.77 µM; in [9], 6.14 µM; in test [10] it was 2.03 µM. In addition, the TGI stood at 14.3 µM in test [1]; 22.5 µM in test [2]; 22.6 µM in [3]; 62.5 µM in test [4]; 13 µM in [5]; 23.8 µM in [6]. The TGI in [7] was determined as 18.3 µM; in test [8], 13.8 µM; in test [9], 39.9 µM; in [10], 4.77 µM.
For `C=C1C(=O)O[C@H]2[C@H]1CC/C(CNC(=O)/C=C/c1cc(OC)c(OC)c(OC)c1)=C\CC[C@@]1(C)O[C@@H]21`, the GI50 in test [1] was 1.51 µM; in [2] it was 2.95 µM; in test [3], 5.29 µM; in test [4], 0.257 µM; in test [5], 1.59 µM; in test [6] it was 0.531 µM. Also, the GI50 is 2.33 µM in test [7], 4.09 µM in test [8], 3.59 µM in test [9] and 0.73 µM in [10]. The TGI in [1] was determined as 3.95 µM; in [2], 6.97 µM; in [3], 21.9 µM; in test [4] it was 5.44 µM; in [5], 8.31 µM; in [6], 10.8 µM. In addition, the TGI worked out at 13.5 µM in test [7], 16.1 µM in test [8], 15.6 µM in [9] and 2.92 µM in test [10].
On to `CCCCON(OC(=O)c1ccc2ccccc2c1)C(=O)c1ccccc1`, for which the GI50 was 92.3 µM in test [1]; greater than 100 µM in [2]; greater than 100 µM in [3]; 44.8 µM in test [4]; greater than 100 µM in [5]; 60.1 µM in test [6]. Besides, the GI50 in test [7], in [8], in [9] and in [10] was greater than 100 µM in each case. Besides, the TGI in test [1], in test [2], in [3], in test [4], in test [5] and in test [6] was greater than 100 µM each time. The TGI in test [7], in test [8], in [9] and in test [10] was greater than 100 µM each time.
Regarding `C[C@]12CC[C@@H]3c4ccc(OC(=O)N(CCCl)CCCl)cc4CC[C@H]3[C@@H]1CC[C@@H]2O`, the GI50 in [1] was 4.64 µM; in [2], 1.56 µM; in [3], 2.44 µM; in test [4], 9.04 µM; in test [5], 2.41 µM; in test [6] it was 1.08 µM. The GI50 in [7] was 0.354 µM; in test [8] it was 3.85 µM; in test [9], 3.48 µM; in test [10], 1.41 µM. In addition, the TGI is 17.1 µM in test [1]; 5.16 µM in test [2]; 43.2 µM and 6.51 µM in [4]; 6.15 µM in [7]; 18.9 µM and 3.14 µM in test [9]; 16.2 µM in test [10].
For `COC(=O)c1ccc(-c2nc3cc(Cl)c(Cl)cc3nc2C#N)cc1`, the GI50 in test [1] was greater than 100 µM; in [2], greater than 100 µM; in [3], 82.4 µM; in [4], 79 µM; in test [5], greater than 100 µM; in test [6], greater than 100 µM. Moreover, the GI50 in test [7], in test [8], in [9] and in test [10] was greater than 100 µM each time. Further, the TGI in [1], in test [2], in test [3], in test [4], in test [5] and in [6] was greater than 100 µM each time. Besides, the TGI in test [7], in test [8], in test [9] and in test [10] was greater than 100 µM in each case.
Regarding `Oc1c(-c2nnc(-c3ccccc3Cl)o2)sc2nnc(-c3ccccc3)c(-c3ccccc3)c12`, the GI50 was 12.6 µM in test [1]; 5.05 µM in test [2]; 4.99 µM in test [3]; 1.81 µM in test [4]; 4.06 µM in test [5]; 3.84 µM in [6]. Moreover, the GI50 in [7] was 4.26 µM; in test [8] it was 3.72 µM; in [9] it was 6.27 µM; in [10], 2.64 µM. The TGI was greater than 100 µM in test [1]; greater than 100 µM in test [2]; greater than 100 µM in test [3]; 20.8 µM in test [5]; greater than 100 µM in test [6]; greater than 100 µM in [7]. Further, the TGI in [8] is greater than 100 µM; in test [9], greater than 100 µM; in [10] it was 9.49 µM.
In the case of `N#Cc1ccc(OCc2nc(N)nc(N)c2-c2ccc(Cl)c(Cl)c2)cc1`, the GI50 in test [1] was 9.98 µM; in test [2], 3.19 µM; in test [3] it was 5.21 µM; in test [4], 4.6 µM; in [5] it was 0.592 µM; in test [6], 2.51 µM. Besides, the GI50 in test [7] is 0.629 µM; in [8], 0.621 µM; in test [9], 2.76 µM; in test [10], 0.467 µM. The TGI in test [1] was greater than 100 µM; in test [2], greater than 100 µM; in test [3], greater than 100 µM; in test [4], greater than 100 µM; in [5] it was greater than 100 µM; in test [6], 34.5 µM. Also, the TGI in test [7] is greater than 100 µM; in test [8] it was 54.5 µM; in test [9], greater than 100 µM; in [10] it was 87.7 µM.
As for `O=c1[nH]c(=O)c2cn[nH]c2[nH]1`, the GI50 in test [1], in [2], in test [3], in [4], in test [5] and in test [6] was greater than 100 µM each time. For the same compound, the GI50 in [7], in [8], in test [9] and in [10] was greater than 100 µM throughout. For the same compound, the TGI in test [1], in test [2], in test [3], in test [4], in test [5] and in test [6] was greater than 100 µM in each case. Besides, the TGI in test [7], in test [8], in [9] and in test [10] was greater than 100 µM in each case.
